How the values were obtained:
[1] = biological target: T1, Recombinant full-length human IDO1 (Homo sapiens, UniProt P14902); assay: IDO1 enzymatic assay (NFK quantified by LCMS); format: biochemical; details: 2 nM enzyme, 5 μM L-tryptophan, pH6.5, 30 minutes pre-incubation at RT; mean values when measured multiple times; read-out: hIDO activity (IC50 in nM)
T1 construct: Recombinant full-length human IDO1 with a N-terminal hexahistidine tag; hexahistidine (His6) (N); made in house; host or cells: E. coli
Method in brief: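 His-tagged human IDO1 (2 nM) in pH 6.5 phosphate buffer with ascorbate, methylene blue and catalase was preincubated with compound (10 μM–0.5 nM, 0.6% DMSO) for 30 min at RT. The reaction then ran with 5 μM L-Trp for 30 min. NFK was measured by LCMS against a d5-Trp standard, and IC50 was obtained by four-parameter fit.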

[2] = biological target: T2, Recombinant human TDO comprising amino acids 19-407 (Homo sapiens, UniProt P48775); assay: TDO2 enzymatic assay (NFK quantified by LCMS); format: biochemical; details: 15 nM enzyme, 200 μM L-tryptophan, pH7, 30 minutes pre-incubation at RT; mean values when measured multiple times; read-out: hTDO activity (IC50 in nM)
T2 construct: Recombinant human TDO comprising amino acids 19-407 with a N-terminal hexahistidine tag; hexahistidine (His6) (N); made in house; host or cells: E. coli
Method in brief: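 NFK formed over 30 min at RT from 200 μM L-tryptophan was measured by LCMS, normalized to d5-tryptophan, after compound (0.5 nM–10 μM, duplicates, 0.6% DMSO) was preincubated 30 min with 15 nM recombinant His-tagged TDO 19-407 in phosphate buffer pH 7. IC50 from four-parameter logistic fit; repeats averaged.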

T1 sequence (P14902 whole entry): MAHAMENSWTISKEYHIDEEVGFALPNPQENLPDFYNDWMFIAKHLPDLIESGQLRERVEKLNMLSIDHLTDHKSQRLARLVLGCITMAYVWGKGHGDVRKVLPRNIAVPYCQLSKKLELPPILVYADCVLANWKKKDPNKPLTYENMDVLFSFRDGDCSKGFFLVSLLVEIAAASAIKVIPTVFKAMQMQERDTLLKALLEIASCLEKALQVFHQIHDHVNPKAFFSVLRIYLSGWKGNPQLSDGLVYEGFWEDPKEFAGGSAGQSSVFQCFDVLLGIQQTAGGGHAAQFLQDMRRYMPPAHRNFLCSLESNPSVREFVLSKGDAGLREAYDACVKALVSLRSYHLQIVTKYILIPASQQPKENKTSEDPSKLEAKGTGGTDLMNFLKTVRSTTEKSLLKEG
T2 sequence (P48775 19-406 limits assumed): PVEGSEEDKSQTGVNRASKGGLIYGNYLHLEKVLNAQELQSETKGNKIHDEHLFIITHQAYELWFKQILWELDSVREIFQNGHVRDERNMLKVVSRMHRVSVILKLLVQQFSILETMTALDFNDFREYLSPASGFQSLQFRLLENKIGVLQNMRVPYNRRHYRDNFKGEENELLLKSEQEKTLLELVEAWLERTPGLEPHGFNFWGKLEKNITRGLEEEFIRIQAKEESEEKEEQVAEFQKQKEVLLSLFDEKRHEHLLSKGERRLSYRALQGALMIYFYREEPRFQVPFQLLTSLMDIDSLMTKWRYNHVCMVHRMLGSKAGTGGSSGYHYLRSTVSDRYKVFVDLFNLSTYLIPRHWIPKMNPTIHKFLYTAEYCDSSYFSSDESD

SMILES	IC50 [1]	IC50 [2]
COc1ccc(-n2cc(C(O)c3c(C4CC4)sc4cncn34)nn2)cn1 (racemic) [Example 69, rac-(2-Cyclopropyl-imidazo[5,1-b]thiazol-3-yl)-[1-(6-methoxy-pyridin-3-yl)-1H-[1,2,3]triazol-4-yl]-methanol]	22.7 nM	> 10200 nM
COC(=O)c1cc(-n2cc(C(O)c3c(C4CC4)sc4cncn34)nn2)cnc1OC (racemic) [Example 70, rac-5-{4-[(2-Cyclopropyl-imidazo[5,1-b]thiazol-3-yl)-hydroxy-methyl]-[1,2,3]triazol-1-yl}-2-methoxy-nicotinic acid methyl ester]	201 nM	> 10200 nM
CCc1sc2cncn2c1C(O)c1cn(-c2ccc3[nH]c(=O)[nH]c3c2)nn1 (racemic) [Example 112, rac-5-{4-[(2-Ethyl-imidazo[5,1-b]thiazol-3-yl)-hydroxy-methyl]-[1,2,3]triazol-1-yl}-1,3-dihydro-benzoimidazol-2-one]	45.6 nM	6220 nM
O=S1(=O)CCC(COc2ccc(-n3cc(C(O)c4c(C5CC5)sc5cncn45)nn3)cc2)CC1 (racemic) [Example 147, rac-(2-Cyclopropyl-imidazo[5,1-b]thiazol-3-yl)-{1-[4-(1,1-dioxo-hexahydro-1I6-thiopyran-4-ylmethoxy)-phenyl]-1H-[1,2,3]triazol-4-yl}-methanol]	12.9 nM	> 10200 nM
O[C@@H](c1cn(-c2ccc(OCCC3(O)CC3)cc2)nn1)c1c(C2CC2)sc2cncn12 [Example 142a, 1-[2-(4-{4-[(R)-(2-Cyclopropyl-imidazo[5,1-b]thiazol-3-yl)-hydroxy-methyl]-[1,2,3]triazol-1-yl}-phenoxy)-ethyl]-cyclopropanol]	9.51 nM	> 10200 nM
CCc1sc2cncn2c1C(O)c1cn(-c2ccc(NC(=O)C(C)C)cc2)nn1 (racemic) [Example 127, rac-N-(4-{4-[(2-Ethyl-imidazo[5,1-b]thiazol-3-yl)-hydroxy-methyl]-[1,2,3]triazol-1-yl}-phenyl)-isobutyramide]	8.21 nM	7750 nM
O[C@@H](c1cnn(-c2ccccc2)c1)c1c(C2CC2)sc2cncn12 [Example 100a, (S)-(2-Cyclopropyl-imidazo[5,1-b]thiazol-3-yl)-(1-phenyl-1H-pyrazol-4-yl)-methanol]	17.5 nM	2450 nM
COc1ncc(-n2cc(C(O)c3c(C4CC4)sc4cncn34)nn2)cn1 (racemic) [Example 67, rac-(2-Cyclopropyl-imidazo[5,1-b]thiazol-3-yl)-[1-(2-methoxy-pyrimidin-5-yl)-1H-[1,2,3]triazol-4-yl]-methanol]	50.2 nM	9160 nM
CCc1sc2cncn2c1C(O)c1cn(-c2ccc(NC(=O)C(C)(C)C)cc2)nn1 (racemic) [Example 120, rac-N-(4-{4-[(2-Ethyl-imidazo[5,1-b]thiazol-3-yl)-hydroxy-methyl]-[1,2,3]triazol-1-yl}-phenyl)-2,2-dimethyl-propionamide]	11 nM	> 10200 nM
CCOc1ncc(-n2cc(C(O)c3c(C4CC4)sc4cncn34)nn2)cc1Cl (racemic) [Example 74, rac-[1-(5-Chloro-6-ethoxy-pyridin-3-yl)-1H-[1,2,3]triazol-4-yl]-(2-cyclopropyl-imidazo[5,1-b]thiazol-3-yl)-methanol]	24.3 nM	> 10200 nM
OC(c1cn(-c2ccc3c(c2)OCCO3)nn1)c1c(C2CC2)sc2cncn12 (racemic) [Example 39, rac-(2-Cyclopropyl-imidazo[5,1-b]thiazol-3-yl)-[1-(2,3-dihydro-benzo[1,4]dioxin-6-yl)-1H-[1,2,3]triazol-4-yl]-methanol]	21.9 nM	> 10200 nM
Cc1sc2cncn2c1C(O)c1cn(-c2ccc(N3CCOCC3)cc2)nn1 (racemic) [Example 56, rac-(2-Methyl-imidazo[5,1-b]thiazol-3-yl)-[1-(4-morpholin-4-yl-phenyl)-1H-[1,2,3]triazol-4-yl]-methanol]	422 nM	> 10200 nM
Cn1nccc1-c1ccc(C(O)c2c(C3CC3)sc3cncn23)s1 (racemic) [Example 169, rac-(2-Cyclopropyl-imidazo[5,1-b]thiazol-3-yl)-[5-(2-methyl-2H-pyrazol-3-yl)-thiophen-2-yl]-methanol]	60 nM	2940 nM

Results, then the molecule that gave them:

IC50 [1]	IC50 [2]	SMILES
17 nM	> 10200 nM	CC(C)(O)CCOc1ccc(-n2cc(C(O)c3c([C@@H]4C[C@@H]4F)sc4cncn34)nn2)cc1Cl (relative stereo) [Example 309, 4-[2-Chloro-4-(4-{[2-(cis-2-fluoro-cyclopropyl)-imidazo[5,1-b]thiazol-3-yl]-hydroxy-methyl}-[1,2,3]triazol-1-yl)-phenoxy]-2-methyl-butan-2-ol]
97.2 nM	7880 nM	OC(c1cnn(-c2ccc3c(c2)OCCO3)c1)c1c(C2CC2)sc2cncn12 (racemic) [Example 222, rac-(2-Cyclopropyl-imidazo[5,1-b]thiazol-3-yl)-[1-(2,3-dihydro-benzo[1,4]dioxin-6-yl)-1H-pyrazol-4-yl]-methanol]
51.7 nM	> 10200 nM	COc1ccc(-n2cc(C(O)c3c(C)sc4cncn34)nn2)cc1 (racemic) [Example 261, rac-[1-(4-Methoxy-phenyl)-1H-[1,2,3]triazol-4-yl]-(2-methyl-imidazo[5,1-b]thiazol-3-yl)-methanol]
13.5 nM	> 10200 nM	CC(C)C(=O)Nc1ccc(-n2cc(C(O)c3c(C4CC4)sc4cncn34)nn2)cc1 (racemic) [Example 192, rac-N-(4-{4-[(2-Cyclopropyl-imidazo[5,1-b]thiazol-3-yl)-hydroxy-methyl]-[1,2,3]triazol-1-yl}-phenyl)-isobutyramide]
155 nM	> 10200 nM	O=S(=O)(c1ccc(-n2cc(C(O)c3c(C4CC4)sc4cncn34)nn2)cc1)N1CCCC1 (racemic) [Example 237, rac-(2-Cyclopropyl-imidazo[5,1-b]thiazol-3-yl)-{1-[4-(pyrrolidine-1-sulfonyl)-phenyl]-1H-[1,2,3]triazol-4-yl}-methanol]
10.2 nM	> 10200 nM	CC(F)(F)c1sc2cncn2c1C(O)c1cn(-c2ccc(OCCCO)c(Cl)c2)nn1 (racemic) [Example 314, rac-3-[2-Chloro-4-(4-{[2-(1,1-difluoro-ethyl)-imidazo[5,1-b]thiazol-3-yl]-hydroxy-methyl}-[1,2,3]triazol-1-yl)-phenoxy]-propan-1-ol]
52.4 nM	> 10200 nM	COc1cc(-n2cc(C(O)c3c(C4CC4)sc4cncn34)nn2)cc(C#N)c1OC (racemic) [Example 198, rac-5-{4-[(2-Cyclopropyl-imidazo[5,1-b]thiazol-3-yl)-hydroxy-methyl]-[1,2,3]triazol-1-yl}-2,3-dimethoxy-benzonitrile]
13.1 nM	> 10200 nM	Oc1ccc(-n2cc(C(O)c3c([C@@H]4C[C@H]4F)sc4cncn34)nn2)cc1Cl (relative stereo) [Example 328, 2-Chloro-4-(4-{[2-(trans-2-fluoro-cyclopropyl)-imidazo[5,1-b]thiazol-3-yl]-hydroxy-methyl}-[1,2,3]triazol-1-yl)-phenol]
272 nM	4080 nM	N#Cc1ccccc1-c1ccc(C(O)c2c(C3CC3)sc3cncn23)s1 (racemic) [Example 172, rac-2-{5-[(2-Cyclopropyl-imidazo[5,1-b]thiazol-3-yl)-hydroxy-methyl]-thiophen-2-yl}-benzonitrile]
179 nM	> 10200 nM	OC(c1cn(-c2ccc(OCC3(F)COC3)c(Cl)c2)nn1)c1c(-c2ccccc2)sc2cncn12 (racemic) [Example 266, rac-{1-[3-Chloro-4-(3-fluoro-oxetan-3-ylmethoxy)-phenyl]-1H-[1,2,3]triazol-4-yl}-(2-phenyl-imidazo[5,1-b]thiazol-3-yl)-methanol]
109 nM	> 10200 nM	CCN(C)C(=O)c1ccc(-n2cc(C(O)c3c(C4CC4)sc4cncn34)nn2)cc1 (racemic) [Example 191, rac-4-{4-[(2-Cyclopropyl-imidazo[5,1-b]thiazol-3-yl)-hydroxy-methyl]-[1,2,3]triazol-1-yl}-N-ethyl-N-methyl-benzamide]
2.1 nM	7780 nM	CCc1sc2cncn2c1C(O)c1cn(-c2ccc(OCCCO)c(Cl)c2)nn1 (racemic) [Example 320, rac-3-(2-Chloro-4-{4-[(2-ethyl-imidazo[5,1-b]thiazol-3-yl)-hydroxy-methyl]-[1,2,3]triazol-1-yl}-phenoxy)-propan-1-ol]
139 nM	> 10200 nM	CCc1sc2cncn2c1C(O)c1cn(-c2ccc(S(=O)(=O)N3CCCC3)cc2)nn1 (racemic) [Example 242, rac-(2-Ethyl-imidazo[5,1-b]thiazol-3-yl)-{1-[4-(pyrrolidine-1-sulfonyl)-phenyl]-1H-[1,2,3]triazol-4-yl}-methanol]
12.1 nM	9820 nM	CC1(c2sc3cncn3c2C(O)c2cn(-c3ccc(O)c(Cl)c3)nn2)CC1 (racemic) [Example 324, rac-2-Chloro-4-(4-{hydroxy-[2-(1-methyl-cyclopropyl)-imidazo[5,1-b]thiazol-3-yl]-methyl}-[1,2,3]triazol-1-yl)-phenol]

Reference: patent publication US20200405696A1, “INHIBITORS OF INDOLEAMINE 2,3-DIOXYGENASE AND/OR TRYPTOPHAN 2,3-DIOXYGENASE” (IDORSIA PHARMACEUTICALS LTD, priority 2018, published 2020)
